Patent US11819576B2, “Process for preparing nano-or microparticles comprising a carrier-polymer and one or more biologically active ingredients” (Evonik Operations GmbH, priority 2019, dated 2023)
Values after ≈ are worked out from the molar mass of the structure shown.

What was measured:
physchem = conditions: 22 °C, organic solvent or mixture, thermodynamic from solid, Solubility in mg/ml
Description: 100 μl n-butanol was added and the dispersion was stirred at ˜300 to 500 rpm by a magnetic stirrer at 21-23° C. n-Butanol was added 10 μl wise.
100 μl water saturated n-butanol (achieved from example 4) was added and the dispersion was stirred at ˜300 to 500 rpm by a magnetic stirrer at 21-23° C. n-Butanol was added 10 μl wise.
100 μl 25% aqueous NaCl solution saturated n-butanol (achieved from example 6) was added and the dispersion was stirred at ˜300 to 500 rpm by a magnetic stirrer at 21-23° C. n-Butanol was added 10 μl wise.
31.35 mg efavirenz (Angene Intemational Limited, China) was weighed into a 10 ml glass vial containing a 1 cm magnetic bar. 50 μl n-butanol was added and the dispersion was stirred at ˜300 to 500 rpm by a magnetic stirrer at 21-23° C. n-Butanol was added 10 μl wise.
30.57 mg efavirenz was weighed into a 10 ml glass vial containing a 1 cm magnetic bar. 50 μl water saturated n-butanol (achieved from example 4) was added and the dispersion was stirred at ˜300 to 500 rpm by a magnetic stirrer at 21-23° C. Water saturated n-butanol was added 10 μl wise till 250 μl. After 250 μl, 25 μl wise addition was used.
31.35 mg efavirenz was weighed into a 10 ml glass vial containing a 1 cm magnetic bar. 50 μl 25% aqueous NaCl solution saturated n-butanol (achieved from example 6) was added and the dispersion was stirred at ˜300 to 500 rpm by a magnetic stirrer at 21-23° C. […]

[1] = Telmisartan release profile, dissolution test using USP II dissolution tester, acetate buffer pH 4.0, 2 h; assay type: physicochemical; conditions: acetate buffer pH 4.0, USP II
Description: FIG. 2), Telmisartan release profile was analyzed by a dissolution test using a USP II dissolution tester (ERWEKA GmbH, Langen, Germany) at pH 4.0 acetate buffer for 2 h (shown in […]

| solubility (physchem) | Release of Telmisartan ([1]; time 0 min) | Release of Telmisartan ([1]; time 5 min) | Release of Telmisartan ([1]; time 10 min) | Release of Telmisartan ([1]; time 15 min) | Release of Telmisartan ([1]; time 30 min) | Release of Telmisartan ([1]; time 45 min) | Release of Telmisartan ([1]; time 60 min) | Release of Telmisartan ([1]; time 90 min) | Release of Telmisartan ([1]; time 120 min) | Structure (SMILES) |
| --- | --- | --- | --- | --- | --- | --- | --- | --- | --- | --- |
| 22 mg/mL (≈ 57.7 mM) | – | – | – | – | – | – | – | – | – | Cc1ccc(-c2cc(C(F)(F)F)nn2-c2ccc(S(N)(=O)=O)cc2)cc1 [Celecoxib, celecoxib] |
| – | 0.040% | 0.081% | 0.148% | 0.185% | 0.240% | 0.613% | 0.310% | 0.671% | 0.343% | CCCc1nc2c(C)cc(-c3nc4ccccc4n3C)cc2n1Cc1ccc(-c2ccccc2C(=O)O)cc1 [Telmisartan pure active, Telmisartan] |
